Source: patent publication US10744127B2, “MDR-reversing 8-hydroxy-quinoline derivatives” (MAGYAR TUDOMÁNYOS AKADÉMIA TERMÉSZETTUDOMÁNYI KUTATÓKÖZPONT, priority 2016, dated 2020)
Read-outs that look alike come from different tables or passages of the source.

What was measured:
[1] = system: MES-SA/Dx5 cell line; assay: Cytotoxicity, PrestoBlue cell viability assay, MES-SA/Dx5; type: cell-based; settings: Homo sapiens
Experimental: (§1) The human uterine sarcoma cell line MES-SA and its doxorubicin resistant counterpart MES-SA/Dx5 were obtained from ATCC (MES-SA: No. CRL-1976™, MES-SA-Dx5: No. CRL-1977™). MES-SA/Dx5 cells express high levels of P-gp, and therefore are multidrug resistant (MDR). Cells were cultured in DMEM supplemented with 10% FBS, 5 mmol/L glutamine and 50 unit/mL penicillin and streptomycin (Life Technologies).
(§2) Cell survival was measured by the PrestoBlue® Cell Viability Reagent (Life Technologies, USA). Cells were seeded in 100 μl medium at a density of 5000 cells/well in 96-well plates; the serially diluted drug was added the following day. Cells were then incubated for 72 hours at 37° C. in 5% CO2; the drug containing medium was removed, and the PrestoBlue® reagent was added according to the manufacturer's instructions. Fluorescence of the cells was measured by a Perkin Elmer EnSpire multimode plate reader or Perkin Elmer Victor X3 microplate reader. Data were background corrected and normalized to untreated cells. Curves were fitted with the help of Prism software using the sigmoidal dose-response model. Curve fit statistics were used to determine IC50 values. Differences between the IC50 values of the respective cell lines were analyzed by two-sided […] unpaired Student's t test and results were considered statistically significant at a P value of <0.05 (*) or 0.01 (**).

[2] = system: MES-SA cell line; assay: Cytotoxicity, PrestoBlue cell viability assay, parental MES-SA; type: cell-based; settings: Homo sapiens; parental MES-SA cell line (Table 2a)
Experimental: as §1, §2

[3] = system: MES-SA and multidrug-resistant MES-SA/Dx5 cell line; assay: Selective toxicity (ratio of IC50 in MES-SA to IC50 in MES-SA/Dx5) and activity index; type: cell-based, human
Excerpt: Compounds having P-gp potentiated MDR-selective activity can be characterized by their inhibitory concentration (IC) with regard to a specific cancer cell line. Usually the IC value is given at a certain percentage ratio of non-inhibited molecules or surviving cells. For example an IC20 value of a compound on a cell line means that at this inhibitory concentration of the compound 80% of the cells are killed whereas 20% of the cells are still viable. A further characteristic of MDR-selective drugs is the selectivity ratio (SR), which is the ratio of the IC value measured in a non-multidrug resistant cell line to (i.e. divided by) the IC value measured in the corresponding transformed, multidrug-resistant cell line. The inverse value, the resistance ratio (RR) is calculated as the ratio of a compound's IC value against a multidrug resistant cell line divided by the parallel IC value of the same compound against a control non-multidrug resistant cell line. The Activity Index (AI) is calculated here as the ratio of the compound's selectivity ratio (SR) and the compound's IC50 value against the resistant cell. The AI reflects the level of simultaneous toxicity and selectivity towards multidrug-resistant cancer cells.
as §1, §2
Selectivity towards multidrug-resistant cells is expressed as the ratio of the IC50 value measured in the parental MES-SA and multidrug-resistant MES-SA/Dx5 cell line (Selectivity Ratio, SR).
A novel characteristic of the compounds presented in this invention is that they exert their selective cytotoxicity at low IC50 values. Simultaneous toxicity and selectivity towards multidrug-resistant cancer cells is reflected by the Activity Index (AI) of the compounds, which is the ratio of the selectivity ratio (SR) and the IC50 value on the resistant cell line.

[4] = system: A431 and A431-B1 cell lines; assay: Selective toxicity in A431 and A431-B1 cell lines; type: cell-based, human; settings: A431 versus P-gp-transfected A431-B1
Experimental: as §2
(§3) Data on selective toxicity (expressed as Selectivity Ratio, SR) in two MDR models engineered by retroviral transfection of P-glycoprotein (A431/A431-B1 and MDCK II/MDCK II B1 cell lines) are presented in Table 3 and Table 4.
(§4) A431 is a human epidermoid carcinoma cell line. Its derivative, the A431-B1 cell line expresses P-gp due to retroviral transfection of the mdr1 gene Türk, D. et al (Türk, D. et al., 2009). MDCK II is a canine kidney cell line. MDCK II B1 was created by inserting the mdr1 gene with transposons [Pape V F S et al. 2015] Both cell express P-gp stably, and show a stable MDR phenotype. Culture conditions were identical as in the case of MES-SA cells.

[5] = system: MDCK II and MDCK II B1 cell lines; assay: Selective toxicity towards MDCK II and MDCK II B1 cell lines; type: cell-based, canine; settings: MDCK II versus MDCK II B1
Experimental: as §2, §3, §4

[6] = system: MES-SA and MES-SA/Dx5 cells; assay: Selective toxicity in the presence of the P-gp inhibitor tariquidar; type: cell-based, human; settings: selectivity ratio in the presence of tariquidar (1 μM)
Experimental: In the presence of tariquidar (an inhibitor of P-gp function), the toxicity of the compounds selectively diminishes in multidrug-resistant MES-SA/Dx5 cells, while the toxicity is unchanged against parental MESSA cells, which is reflected by a decrease in the selectivity ratio (SR (TQ)).
To investigate the contribution of P-glycoprotein to the cytotoxic effect of a compound, cell survival was measured in the presence of the P-glycoprotein inhibitor tariquidar (1 μM). Tariquidar (CAS 206873-63-4) can be obtained e.g. from Selleck, Houston, USA.

[7] = system: P-gp-expressing MES-SA/Dx5 cells; assay: P-gp switch assay (Calcein AM); type: cell-based, human; settings: MES-SA/Dx5, single dose at IC20 (killing 80% of the cells), surviving population at 80% confluence, Calcein AM
Experimental: One million P-gp-expressing MES-SA/Dx5 cells were plated in a T25 cell culture flask. After 24 hours the compound of interest was added directly to the cells at a concentration corresponding to the IC20 value (killing 80% of the cells). After 5 days the culture media was removed, the cells were washed with PBS and the culture medium was exchanged. Cells were monitored daily and the recovery was recorded. The medium was changed every 5 days until the confluence of the cells reached 80%. At 80% confluence the cells were removed by gentle trypsinization, counted by an automated cell counter and stained with Calcein AM, a cellular dye able to detect the function of P-gp (Homolya 1993). P-gp-positivity was evaluated based on the ability of P-gp-expressing cells to extrude Calcein AM.

[8] = multidrug-resistant MES-SA/Dx5 cell line (Table 2a), read-out: IC50 (nM) in MES-SA/Dx5 cell line
[9] = MES-SA / MES-SA/Dx5, without tariquidar (Table 5)
[10] = MES-SA/Dx5 (Table 2b), read-out: IC50 (μM) Dx5
[11] = Mes-sa/Dx5 cell line, PrestoBlue assay, 72 hours (Table 1), read-out: IC50

Row | SMILES | IC50 [1, 8] | IC50 [2] | SR [3, 9] | Selectivity Ratio (SR) (A431/A431-B1) [4] | Selectivity Ratio (SR) (MDCK II/MDCK II B1) [5] | SR (TQ) [6] | melting point | Selectivity Ratio (SR) ([3]; IC50 in MES-SA divided by IC50 in MES-SA/Dx5 (Table 2a)) | IC50 [1, 10] | IC50 [1, 11] | SR ([3]; MES-SA / MES-SA/Dx5 (Table 2b)) | Fraction of P-gp-negative cells (P3) in the population [7] | Fraction of P-gp-positive cells (P4) in the population [7]
1 | COc1ccc(CNCc2cc([N+](=O)[O-])c3cccnc3c2O)cc1OC [Example 30, 7-(((3,4-Dimethoxybenzyl)amino)methyl)-5-nitroquinolin-8-ol] | 1220 nM | 23800 nM | 19.3 | 11.5 | 16.1 | 1.3 | 204 to 206 °C |  |  |  |  |  | 
2 | COc1ccccc1CNCc1cc([N+](=O)[O-])c2cccnc2c1O [Example 29, 7-(((2-Methoxybenzyl)amino)methyl)-5-nitroquinolin-8-ol] | 2090 nM | 40600 nM |  | 25.1 | 17.1 |  | 199 to 203 °C | 19.2 |  |  |  |  | 
3 | COc1ccc(CNCc2cc(Cl)c3cccnc3c2O)cc1 [Example 7, 5-Chloro-7-(((4-methoxybenzyl)amino)methyl)quinolin-8-ol] |  |  | 13.4 | 12.6 |  | 1.3 | 125 to 127 °C |  |  |  |  |  | 
4 | COc1ccc(CNCc2cc(Cl)c3cccnc3c2O)c(OC)c1 [Example 26, 5-Chloro-7-(((2,4-dimethoxybenzyl)amino)methyl)quinolin-8-ol] | 130 nM | 2260 nM | 17.6 | 11.2 | 8.0 | 1.7 | 136 to 139 °C |  | 130 nM | 133 nM | 17.6 |  | 
5 | O=[N+]([O-])c1cc(C2NCCc3ccccc32)c(O)c2ncccc12 (centres unmarked) [Example 15, 5-Nitro-7-(1,2,3,4-tetrahydroisoquinolin-1-yl)quinolin-8-ol] | 594 nM | 12400 nM | 23.8 |  |  | 1.4 |  |  | 590 nM |  | 23.8 | 67.2% | 32.80%
6 | COc1ccc(CNCc2cc(Br)c3cccnc3c2O)cc1OC [Example 25, 5-Bromo-7-(((3,4-dimethoxybenzyl)amino)methyl)quinolin-8-ol] | 131 nM | 2910 nM | 22.3 |  | 9.4 | 1.6 | 133 to 136 °C |  | 130 nM | 131 nM | 22.3 | 92.30% | 7.70%
7 | COc1ccc(CNCc2cc([N+](=O)[O-])c3cccnc3c2O)cc1 [Example 27, 7-(((4-Methoxybenzyl)amino)methyl)-5-nitroquinolin-8-ol] | 310 nM | 6090 nM | 19.9 | 12.6 | 8.0 | 1.6 | 191 to 193 °C |  | 310 nM |  | 19.9 |  | 
8 | Cc1ccc2ccc(C3NCCc4sccc43)c(O)c2n1 (centres unmarked) [Example 20] |  |  |  | 13.2 | 10.0 |  |  |  |  |  |  |  | 
9 | Cl.Oc1c(CNCc2ccccc2F)cc(Cl)c2cccnc12 [Example 12, 5-Chloro-7-({[(2-fluorophenyl)methyl]amino}methyl)quinolin-8-ol Hydrochloride] |  |  |  |  | 8.3 |  |  |  |  |  |  |  | 
10 | COc1ccc(CNCc2cc([N+](=O)[O-])c3cccnc3c2O)c(OC)c1 [Example 28, 7-(((2,4-Dimethoxybenzyl)amino)methyl)-5-nitroquinolin-8-ol] | 442 nM | 8650 nM | 19.7 |  |  | 1.6 | 206 to 209 °C |  | 440 nM |  | 19.7 |  | 
11 | COc1cc2c(cc1OC)C(c1cc(Cl)c3cccnc3c1O)NCC2 (centres unmarked) [Example 16, 5-Chloro-7-(6,7-dimethoxy-1,2,3,4-tetrahydroisoquinolin-1-yl)quinolin-8-ol] |  |  | 10.3 | 24.7 |  | 0.9 |  |  |  |  |  |  | 
12 | COc1ccc(CNCc2cc(S(C)(=O)=O)c3cccnc3c2O)c(OC)c1 [Example 37, 7-(((2,4-Dimethoxybenzyl)amino)methyl)-5-(methylsulfonyl)quinolin-8-ol] |  |  |  | 16.7 | 8.9 |  |  |  |  |  |  |  | 
13 | Oc1c(CN2CCCCC2)ccc2ccc(N/N=C/c3ccccn3)nc12 [Example 5, (E/Z)-7-(Piperidin-1-ylmethyl)-2-(2-(pyridine-2-ylmethylene)hydrazinyl)quinolin-8-ol] | 1970 nM | 40500 nM | 20.9 |  |  | 1.2 | 248 to 250 °C |  |  |  |  | 67.6% | 32.40%
